According to ChEMBL document CHEMBL3507680, “University of Dundee, Gates Library screen for HepG2 cell viability”:

experiment: Human HepG2 cell viability assay in 384 well format; format: toxicity, cell-based; design: dose 125 nL, time 70.5 hour; cytotoxicity at 70.5 h: concentration not given beside the values; details: HepG2 cells, read-out: Inhibition

| Structure (SMILES) | cytotoxicity at 70.5 h [%] |
| --- | --- |
| CC(C)(C)CC(=O)NCCCn1cncn1 | -6.64 |
| CC(C)(C)C(=O)NCCCn1cncn1 | 6.35 |
| Cc1cn2c(n1)C(CNCC1=Cc3cc(Cl)ccc3OC1)CCC2 (stereo not given) | 3.13 |
| CC(C)c1nnc2n1CC(CNCc1nnc(C(C)(C)C)o1)CC2 (stereo not given) | 9.48 |
| Cc1cc(C)c(CNC(=O)NC2CCOCC2)c(=O)[nH]1 | -12.6 |
| COc1cccc(CN(C)CC2=Nc3ccccc3S(=O)(=O)N2)c1 | -8.56 |
| COc1cccc(CSCC2=Nc3ccccc3S(=O)(=O)N2)c1 | 3.53 |
| O=C(c1cc(F)cc2[nH]cnc12)N1CCCCC1Cn1cccn1 (stereo not given) | -7.7 |
| CN(C)S(=O)(=O)c1ccc2c(c1)N(Cc1nccn1C)CC2 | -3.03 |
| CC(C)n1nc2c(cc1=O)CN(c1ncnc3sccc13)CC2 | -10.1 |
| O=C(c1ccc2[nH]cnc2c1)N1CCCC1Cn1cccn1 (stereo not given) | -8.04 |
| Cc1cc(S(=O)(=O)NC(=O)CCc2cccnc2)c(C)s1 | 1.22 |
| Cn1cnnc1-c1ccnc(NCc2ccccc2)c1 | -6.07 |
| Fc1ccc(Br)c(NCc2nnsc2Cl)c1 | -2.39 |
| Cn1cnnc1-c1ccnc(NCc2ccc(Br)cc2)c1 | -4.99 |
| OC(CNC1CCOCC1)c1ccc(Cl)c(F)c1 (stereo not given) | 0.212 |
| Cc1nc(CNCC(C)c2nc3ccccc3o2)cs1 (stereo not given) | 0.552 |
| Cc1csc(CNCC(C)c2nc3ccccc3o2)n1 (stereo not given) | 15 |
| Cc1ncsc1CNCC(C)c1nc2ccccc2o1 (stereo not given) | -7.51 |
| CCN(CC)S(=O)(=O)N1CCCC1c1nnc2n1CCCCC2 (stereo not given) | -8.56 |
| CSCC(=O)N(C)Cc1ccccc1 | -6.59 |
| Cc1cn2c(n1)C(CNCc1cccc3c1OCO3)CCC2 (stereo not given) | 23.3 |
| Fc1ccc(NCc2nnsc2Cl)c(OC(F)F)c1 | 0.194 |
| CCN(C)C(=O)Nc1cc(F)c(OC)cc1F | 18.4 |

| Structure (SMILES) | cytotoxicity at 70.5 h [%] |
| --- | --- |
| CC(C)Cn1cc(NCc2cscn2)cn1 | 9.5 |
| c1coc(-c2nnc(CN(Cc3cccs3)CC3CCCO3)o2)c1 (stereo not given) | -6.66 |
| CN(CC(=O)NC(C)(C)C)Cc1nc(-c2ccccc2)c[nH]1 | 39 |
| O=C1NCCCCC1NCc1csc(-c2ccsc2)n1 (stereo not given) | 7.38 |
| CC(CNC(=O)c1nc(N2CCOCC2)ncc1Cl)c1ccccc1 (stereo not given) | 7.86 |
| COCCNS(=O)(=O)c1ccc(CNc2ncccc2C#N)cc1 | -12.6 |
| O=C(c1cccnc1O)N1CCC(COc2ccccc2)CC1 | -14.5 |
| COc1cc2c(cc1OC)S(=O)(=O)N(Cc1ccccc1)C2=O | -14.6 |
| COc1ccccc1N1CCN(Cc2nc(C)c(C)o2)CC1 | -8.1 |
| COc1cc(C(C)=O)ccc1SCC(=O)Nc1cc(C)n[nH]1 | -11.8 |
| COc1ccc2c(c1)CCCN(C(C)C(=O)NC(N)=O)C2 (stereo not given) | -8.05 |
| COc1cc(F)ccc1N1CCN(Cc2nc(C)c(C)o2)CC1 | -11.2 |
| CCN(C)c1ccc(CNC(=O)c2cc(C(N)=O)cs2)cc1F | -8.22 |
| CN(C)CCn1ccc2ccc(NC(=O)c3ccncc3F)cc21 | -6.52 |
| NC(=O)c1cccc(OCCC(=O)NC2CCc3c(F)cccc32)c1 (stereo not given) | -9.97 |
| N#Cc1ccc(NCCc2n[nH]c(=O)[nH]2)cc1Cl | -10.2 |
| O=C(c1coc2ccccc12)N1CCCC1 | -9.29 |
| O=C(CO)N1CCN(C(=O)c2coc3ccccc23)CC1 | -7.53 |
| CC(C)OCCSCc1nnc(-c2cccc(F)c2)o1 | -5.57 |
| CCCN(Cc1ccc(C#N)cc1)Cc1nnsc1Cl | 26.4 |
| CC(=O)c1ccc(C(=O)N2CCCCC2c2nc[nH]n2)cc1 (stereo not given) | 1.34 |
| Cc1cc(NC(=O)CNc2cccc(C(=O)N3CCCC(O)C3)c2)no1 (stereo not given) | -3.66 |
| COc1cccc(CNc2cc(C)nc(-c3ccncc3)n2)c1OC | -6.44 |
| O=C(Nc1ccc(CC(=O)N2CCSCC2)cc1)NC1CCCC1 | -4.2 |

| Structure (SMILES) | cytotoxicity at 70.5 h [%] |
| --- | --- |
| CCOc1ccccc1C(CC(=O)O)NC(C)=O (stereo not given) | -4.62 |
| CC(C)C(C)(C#N)NC(=O)Cn1cc(C(N)=O)c(-c2ccccc2)n1 (stereo not given) | -6.34 |
| Cc1cc(C)n(C2CN(CCc3ccncc3)C2)n1 | 42.3 |
| CCc1ccc(NC(=O)C(C)N2CCN(Cc3ncc[nH]3)CC2)cc1 (stereo not given) | -2.82 |
| COc1cc(CNc2cnn(CCN3CCOCC3)c2)cc(OC)c1 | -20.4 |
| CCS(=O)(=O)CCN(C)C(=O)NC(C)c1ccc(C)s1 (stereo not given) | -5.27 |
| OC(COCc1ccccc1F)CN1CCC(Cn2cccn2)CC1 (stereo not given) | -0.0861 |
| CCN(C(=O)CCCOC)C(c1ccc(Cl)cc1)c1ccccn1 (stereo not given) | 31.1 |
| Cc1cccc2c1NC(c1cnc(C3CCC3)s1)NC2=O (stereo not given) | -18.5 |
| O=C(COCc1ccccc1Cl)Nc1ccnn1CC1CCOC1 (stereo not given) | -18.3 |
| COc1ccc(C2CCN(C(=O)c3ncccc3OC(C)C)C2)cc1 (stereo not given) | 11.5 |
| CCN(Cc1cnn(C)c1)C(=O)c1cc2ccccc2c(=O)[nH]1 | -7.09 |
| NC(=O)CC1CCCCN1C(=O)Cc1cccc(Br)c1 (stereo not given) | -4.57 |
| CS(=O)(=O)NC1CCN(C(=O)c2[nH]c3ccc(Cl)cc3c2Cl)CC1 | 31.7 |
| Cc1cccc(C2(CNC(=O)C(C)S(C)(=O)=O)CCCC2)c1 (stereo not given) | -3.73 |
| Cc1cccc(C2(CNC(=O)C(C)NC(N)=O)CCCC2)c1 (stereo not given) | 4.08 |
| CC(C(=O)N(C)C)S(=O)(=O)c1cc2c(cc1Cl)OCCO2 (stereo not given) | -6.12 |
| N#Cc1cc(S(N)(=O)=O)ccc1NC1CCc2cc(Cl)ccc21 (stereo not given) | -11.2 |
| N#Cc1cc(S(N)(=O)=O)ccc1NC1CCc2ccc(F)cc21 (stereo not given) | 7.54 |
| Cn1cc(CNc2ccc(CCO)cc2)c(-c2ccncc2)n1 | 21.4 |
| Cc1ccc(OCC(O)Cn2ncc3cnn(C)c(=O)c32)cc1 (stereo not given) | -6.88 |
| Cc1ccc(N2CCCC(N3CCN(CC(F)F)CC3)C2=O)cc1 (stereo not given) | -6.94 |
| CSCCN(C)Cc1ccc(F)cc1C#N | -4.74 |
| Cc1cnc(NCc2ccc(S(=O)(=O)N(C)C(C)C)cc2)nc1C | -11.1 |

| Structure (SMILES) | cytotoxicity at 70.5 h [%] |
| --- | --- |
| CCCc1nccn1CCn1cnc2ccsc2c1=O | 1.1 |
| CC(C)c1nccn1CCn1cnc2ccsc2c1=O | -8.28 |
| CN(Cc1ccc(F)cc1C#N)CC(F)(F)F | 17.4 |
| Cc1cc(C)n(C2CN(CC(O)Cn3cccn3)C2)n1 (stereo not given) | 7.73 |
| Cc1ccc(C)c(CS(=O)(=O)CC(=O)N(C)Cc2cccc(F)c2)c1 | 21.1 |
| Cc1ccccc1CS(=O)(=O)CC(=O)N(C)Cc1ccccc1 | -9.59 |
| Cc1noc(C)c1CNC(=O)C1(NS(C)(=O)=O)CCCCC1 | -5.85 |
| Cc1noc(C)c1CN(C)C(=O)C1(NS(C)(=O)=O)CCCCC1 | -0.856 |
| COCc1nc(C(=O)N2CCN(Cc3cc(C)on3)CC2)cs1 | -5.75 |
| CC(C(=O)NC1CC1)S(=O)(=O)Cc1csc(-c2cccs2)n1 (stereo not given) | 11 |
| COCCN1CCC(NCc2c(C)nn(C)c2N(C)C)CC1 | -4.85 |
| Cc1ccccc1CS(=O)(=O)CC(=O)N(C)Cc1ccccc1F | -1.24 |
| Cc1noc(C)c1CN(C)C(=O)C1(N)CCCCC1 | -2.97 |
| O=C(C1CCCN1S(=O)(=O)C1CCCC1)N1CCSCC1 (stereo not given) | -5.09 |
| Cc1nnc(CN2CCCC2c2cccc(Br)c2)o1 (stereo not given) | -4.5 |
| CC(C)N(C)S(=O)(=O)N1CCCC1C(=O)N1CCSCC1 (stereo not given) | -0.523 |
| CCN1CCN(c2ccc(C(=O)NCCOC)cc2F)CC1 | 25.2 |
| Cc1cnn(C2CN(CC(O)Cn3cccn3)C2)c1 (stereo not given) | 7.89 |
| NS(=O)(=O)c1cnn(-c2ccc(NC(=O)CC3CCCC3)cn2)c1 | -5.14 |
| NS(=O)(=O)c1cnn(-c2ccc(NC(=O)C3CCCCC3)cn2)c1 | -0.503 |
| Cc1ccc(C(=O)NS(=O)(=O)Cc2ccon2)c(C)c1 | -4.2 |
| CC(c1cc(F)ccc1F)N1CCN(C(=O)c2ccc(=O)[nH]c2)CC1 (stereo not given) | -1.22 |
| COc1cc(C)c(CNC(C)c2csc(C3CC3)n2)cc1OC (stereo not given) | -4 |
| CCOc1cc(CNC(C)c2sccc2C)ccn1 (stereo not given) | -0.185 |

| Structure (SMILES) | cytotoxicity at 70.5 h [%] |
| --- | --- |
| CCOc1cc(CNC(C)c2ccc(F)cc2)ccn1 (stereo not given) | 26.8 |
| CCN(C(=O)C1Cc2cc(Cl)ccc2O1)C1CC1 (stereo not given) | -2.35 |
| CS(=O)(=O)N1CCN(CC(=O)Nc2cccc(Cl)c2)CC1 | 5.96 |
| CC(C)(NC(=O)c1cnc(-c2ccccc2F)s1)C(N)=O | -10.3 |
| CN(Cc1cccc(F)c1)S(=O)(=O)N1CCOCC1 | -3.2 |
| O=C(NCc1cc[nH]n1)NC1CCCN(c2ncccn2)C1 (stereo not given) | -6.39 |
| O=C(NCc1ccoc1)NC1CCCN(c2ncccn2)C1 (stereo not given) | -4.3 |
| O=C(NCc1ccc(F)cc1)N1CCC(C2OCCO2)CC1 | -10 |
| COCCn1ccc2cc(NC(C)=O)ccc21 | -5.43 |
| CN(Cc1nccn1CC(F)(F)F)C(=O)c1ccc(F)c(F)c1 | -1.82 |
| COc1cccc2c1OCC(NC(=O)NCc1cccs1)C2 (stereo not given) | -0.177 |
| CCc1nccn1C1CCCN(C(=O)c2cnc3ccccc3n2)C1 (stereo not given) | -2.77 |
| CCc1nccn1C1CCCN(C(=O)c2ccc3[nH]cnc3c2)C1 (stereo not given) | -5.72 |
| CC(O)CN1CCN(C(=O)c2cc3ccccc3[nH]c2=O)CC1 (stereo not given) | -11 |
| CC(NC(=O)NCC1(O)CCC1)c1ccc(OCC2CC2)c(F)c1 (stereo not given) | -12 |
| Cc1ccc(CCC(=O)N(C)CCN2CCOCC2)c(C)c1 | -0.456 |
| CCc1csc(C2CCCN(C(=O)c3cnn(CC)c3)C2)n1 (stereo not given) | 6.03 |
| Cc1cccc(NC(=O)c2sccc2C)n1 | 36.7 |
| O=C(C1CC1)N1CCC2(CC1)OCCO2 | -6.55 |
| COCCNC(=O)c1ccc(C)c(-n2cccc2)c1 | -2.8 |
| CS(=O)(=O)NCCCNC(=O)c1cccc(-n2cccc2)c1 | -1.21 |
| CC(=O)N1CCN(CCNS(=O)(=O)c2ccc(C)c(F)c2)CC1 | 28.3 |
| O=C(CN1CCCC(O)C1)NC(=O)NCc1cccs1 (stereo not given) | -8.04 |
| Cc1nn(C)c(Cl)c1CNCc1cccnc1N1CCOCC1 | 0.768 |
